# Test results taken from ChEMBL document CHEMBL1221290, “Novel imidazobenzazepine derivatives as dual H1/5-HT2A antagonists for the treatment of sleep disorders” (Bioorg Med Chem Lett, 2010).
# Assays:
# [1] = molecular target: T1, 5-hydroxytryptamine receptor 2C (Homo sapiens, UniProt P28335); test: Antagonist activity at human 5HT2C receptor expressed in human SHSY5Y cells by FLPR assay; assay type: functional, cell-based, SH-SY5Y; details: for pKi: sh-sy5y
# T1 sequence (P28335 whole entry): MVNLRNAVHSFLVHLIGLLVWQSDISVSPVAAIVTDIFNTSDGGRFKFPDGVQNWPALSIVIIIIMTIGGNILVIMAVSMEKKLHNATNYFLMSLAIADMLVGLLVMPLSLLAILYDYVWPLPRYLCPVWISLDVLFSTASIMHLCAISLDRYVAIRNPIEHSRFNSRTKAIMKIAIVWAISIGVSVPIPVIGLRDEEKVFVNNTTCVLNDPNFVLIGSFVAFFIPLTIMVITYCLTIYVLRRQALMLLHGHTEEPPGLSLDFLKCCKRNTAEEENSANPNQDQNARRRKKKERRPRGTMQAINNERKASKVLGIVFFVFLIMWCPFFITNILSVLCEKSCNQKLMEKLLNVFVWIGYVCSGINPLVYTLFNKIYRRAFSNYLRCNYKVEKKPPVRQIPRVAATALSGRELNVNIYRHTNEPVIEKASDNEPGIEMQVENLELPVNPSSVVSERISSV
# [2] = molecular target: 5-hydroxytryptamine receptor 2B (Homo sapiens, UniProt P41595); test: Antagonist activity at human 5HT2B receptor expressed in human SHSY5Y cells by FLPR assay; assay type: functional, cell-based, SH-SY5Y
# [3] = molecular target: Histamine H1 receptor (Homo sapiens, UniProt P35367); test: Antagonist activity at human recombinant histamine H1 receptor expressed in CHO cells by FLPR assay; assay type: functional, cell-based
# [4] = molecular target: 5-hydroxytryptamine receptor 2A (Homo sapiens, UniProt P28223); test: Antagonist activity at human 5HT2A receptor expressed in HEK cells assessed as intracellular calcium luminescence by aequorin assay; assay type: functional, cell-based, HEK293
# [5] = Fraction unbound in rat blood; assay type: ADME, tissue-based
# [6] = Half life in rat at 1 mg/kg, iv and 3 mg/kg, po; assay type: ADME, organism-based; details: in vivo
# [7] = Volume of distribution at steady state in rat at 1 mg/kg, iv and 3 mg/kg, po; assay type: ADME, organism-based; details: in vivo, read-out: Vdss
# [8] = AUC (0 to 8 hrs) ratio of drug level in brain to blood in rat at 3 mg/kg, po; assay type: ADME, organism-based; parameters: dose 3 mg/kg, route oral; details: read-out: Ratio AUC
# [9] = Blood clearance in rat at 1 mg/kg, iv and 3 mg/kg, po; assay type: ADME, organism-based
# [10] = Oral bioavailability in rat at 3 mg/kg; assay type: ADME, organism-based; details: in vivo
# [11] = Fraction unbound in rat brain; assay type: ADME, tissue-based
# [12] = molecular target: T2, Alpha-1A adrenergic receptor (Homo sapiens, UniProt P35348); test: Antagonist activity at human adrenergic alpha1A receptor assessed as intracellular calcium luminescence by cell based aequorin assay; assay type: functional
# T2 sequence (P35348 whole entry): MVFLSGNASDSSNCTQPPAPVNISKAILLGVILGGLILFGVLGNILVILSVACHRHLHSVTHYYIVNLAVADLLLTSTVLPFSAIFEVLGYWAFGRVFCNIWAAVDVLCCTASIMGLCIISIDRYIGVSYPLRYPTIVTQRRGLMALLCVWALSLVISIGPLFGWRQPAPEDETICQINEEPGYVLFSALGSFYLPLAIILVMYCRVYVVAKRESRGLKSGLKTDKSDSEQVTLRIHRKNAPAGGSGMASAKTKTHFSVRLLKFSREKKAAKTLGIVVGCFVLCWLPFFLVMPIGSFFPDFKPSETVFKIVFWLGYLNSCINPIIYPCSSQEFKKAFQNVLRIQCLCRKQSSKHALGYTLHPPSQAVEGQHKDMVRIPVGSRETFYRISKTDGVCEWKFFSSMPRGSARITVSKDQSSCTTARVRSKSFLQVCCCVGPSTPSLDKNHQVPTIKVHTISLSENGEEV
# [13] = molecular target: T3, Alpha-1B adrenergic receptor (Homo sapiens, UniProt P35368); test: Antagonist activity at human adrenergic Alpha-1B receptor assessed as intracellular calcium luminescence by cell based aequorin assay; assay type: functional
# T3 sequence (P35368 whole entry): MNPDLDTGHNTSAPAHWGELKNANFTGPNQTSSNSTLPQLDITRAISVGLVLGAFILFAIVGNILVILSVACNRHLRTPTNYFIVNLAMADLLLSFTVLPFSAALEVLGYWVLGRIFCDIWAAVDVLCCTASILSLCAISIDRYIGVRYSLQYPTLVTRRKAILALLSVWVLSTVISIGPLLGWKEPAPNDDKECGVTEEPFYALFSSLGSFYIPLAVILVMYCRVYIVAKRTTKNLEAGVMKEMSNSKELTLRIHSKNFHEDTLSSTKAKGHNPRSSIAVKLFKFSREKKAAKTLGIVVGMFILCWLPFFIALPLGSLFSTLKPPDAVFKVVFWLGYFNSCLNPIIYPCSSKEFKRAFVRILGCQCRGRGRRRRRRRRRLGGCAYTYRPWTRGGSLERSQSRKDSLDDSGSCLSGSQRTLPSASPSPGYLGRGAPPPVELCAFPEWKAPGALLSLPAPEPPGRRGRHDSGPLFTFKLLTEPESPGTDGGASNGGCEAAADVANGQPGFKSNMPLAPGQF
# [14] = AUC (0 to 8 hrs) ratio of drug level in brain to blood in rat at 1 mg/kg, po; assay type: ADME, organism-based; parameters: dose 1 mg/kg, route oral; details: read-out: Ratio AUC
# [15] = Oral bioavailability in rat at 1 mg/kg; assay type: ADME, organism-based; details: in vivo
# [16] = Volume of distribution at steady state in rat at 0.5 mg/kg, iv and 1 mg/kg, po; assay type: ADME, organism-based; details: in vivo, read-out: Vdss
# [17] = Blood clearance in rat at 0.5 mg/kg, iv and 1 mg/kg, po; assay type: ADME, organism-based
# [18] = Half life in rat at 0.5 mg/kg, iv and 1 mg/kg, po; assay type: ADME, organism-based; details: in vivo
# Sequence of 5-hydroxytryptamine receptor 2A (P28223 whole entry): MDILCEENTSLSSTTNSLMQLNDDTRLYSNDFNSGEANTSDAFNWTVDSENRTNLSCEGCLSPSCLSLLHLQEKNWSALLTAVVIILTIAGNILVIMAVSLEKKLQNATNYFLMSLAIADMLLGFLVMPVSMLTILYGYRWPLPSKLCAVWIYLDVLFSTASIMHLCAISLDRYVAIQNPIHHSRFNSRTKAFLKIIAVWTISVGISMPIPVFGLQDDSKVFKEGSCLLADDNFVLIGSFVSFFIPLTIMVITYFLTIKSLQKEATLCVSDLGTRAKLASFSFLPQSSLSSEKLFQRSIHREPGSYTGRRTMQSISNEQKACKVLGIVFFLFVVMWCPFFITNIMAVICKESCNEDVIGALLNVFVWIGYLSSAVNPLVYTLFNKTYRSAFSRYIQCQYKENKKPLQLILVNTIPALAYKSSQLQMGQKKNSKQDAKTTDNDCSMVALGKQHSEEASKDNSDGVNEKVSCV
# Sequence of Histamine H1 receptor (P35367 whole entry): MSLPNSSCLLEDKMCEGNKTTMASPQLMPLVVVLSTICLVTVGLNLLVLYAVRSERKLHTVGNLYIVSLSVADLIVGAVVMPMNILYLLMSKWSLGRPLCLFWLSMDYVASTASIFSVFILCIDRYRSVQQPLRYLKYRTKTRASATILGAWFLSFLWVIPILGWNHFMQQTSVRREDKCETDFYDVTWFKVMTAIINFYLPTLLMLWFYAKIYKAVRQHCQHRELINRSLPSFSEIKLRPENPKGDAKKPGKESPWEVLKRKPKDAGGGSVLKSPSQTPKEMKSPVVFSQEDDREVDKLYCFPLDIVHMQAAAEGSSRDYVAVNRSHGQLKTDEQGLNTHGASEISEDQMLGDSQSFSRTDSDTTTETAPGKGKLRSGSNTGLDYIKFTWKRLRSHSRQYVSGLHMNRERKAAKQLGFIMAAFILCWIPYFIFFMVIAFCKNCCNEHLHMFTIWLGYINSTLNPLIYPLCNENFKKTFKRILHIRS
# Sequence of 5-hydroxytryptamine receptor 2B (P41595 whole entry): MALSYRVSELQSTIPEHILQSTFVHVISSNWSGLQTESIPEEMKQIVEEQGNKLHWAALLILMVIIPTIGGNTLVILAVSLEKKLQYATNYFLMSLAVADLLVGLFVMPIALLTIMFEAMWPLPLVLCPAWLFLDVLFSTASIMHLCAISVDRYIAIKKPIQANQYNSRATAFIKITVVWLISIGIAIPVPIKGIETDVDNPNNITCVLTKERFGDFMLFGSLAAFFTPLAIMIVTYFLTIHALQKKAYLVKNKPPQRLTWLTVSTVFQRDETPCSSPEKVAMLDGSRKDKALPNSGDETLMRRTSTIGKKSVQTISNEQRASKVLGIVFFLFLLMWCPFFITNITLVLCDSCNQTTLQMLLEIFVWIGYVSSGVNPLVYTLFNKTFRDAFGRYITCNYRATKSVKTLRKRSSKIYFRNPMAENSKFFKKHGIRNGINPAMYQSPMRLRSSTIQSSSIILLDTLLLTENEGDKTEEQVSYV
Compound,Ki [1] [nM],Ki [2] [nM],Ki [3] [nM],Ki [4] [nM],also measured
CC1CN(C2=Cc3ccccc3Cn3ccnc32)CC(C)N1CCC(=O)O (stereo not drawn),158,631,20,39.8,–
Cc1cn2c(n1)C(N1CCN(CC(C)(C)C(=O)O)CC1)=Cc1ccccc1C2,31.6,63.1,50.1,126,–
"O=C(O)C1CC(N2CCN(C3=Cc4ccccc4Cn4ccnc43)CC2)C1 (single isomer, unassigned; isomer 2)",–,–,25.1,–,pKi [1]: < 6.1; pKi ([2]; sh-sy5y): < 6.1; pKi ([4]; hek293): < 6.1
O=C(O)C1CC(N2CCN(C3=Cc4ccccc4Cn4ccnc43)CC2)C1 (stereo in doubt; 13),> 794,> 794,12.6,> 794,–
COc1cnc2n1Cc1ccccc1C=C2N1CCN(CC(C)(C)C(=O)O)CC1,501,158,126,251,–
CC(C)(CN1CCN(C2=Cc3ccccc3Cn3cc(Cl)nc32)CC1)C(=O)O,–,100,–,–,–
Cc1nc2n(c1C)Cc1ccccc1C=C2N1CCN(CC(C)(C)C(=O)O)CC1,63.1,15.8,39.8,398,–
CC(C)(CN1CCN(C2=Cc3ccccc3Cn3cc(F)nc32)CC1)C(=O)O,316,316,39.8,100,fraction unbound [5]: 0.4; Kp [14]: 0.04; bioavailability [15]: 45%; Vd [16]: 1.1 L/kg; clearance [17]: 10 mL/min/kg; half-life [18]: 1.8 h; fraction unbound [11]: 0.45
CC(C)(CN1CCCN(C2=Cc3ccccc3Cn3ccnc32)CC1)C(=O)O,> 2000,> 2000,50.1,> 5010,–

# The next lines start with results.
Ki [1] [nM],Ki [2] [nM],Ki [3] [nM],Ki [4] [nM],Compound,also measured
> 794,> 794,50.1,316,O=C(O)CCN1CCN(C2=Cc3ccccc3Cn3ccnc32)CC1,–
50.1,1580,25.1,79.4,CC(C)(CN1CCN(C2=Cc3ccccc3Cn3ccnc32)CC1)C(=O)O,fraction unbound [5]: > 0.5; half-life [6]: 0.7 h; Vd [7]: 1.9 L/kg; Kp [8]: 0.02; clearance [9]: 38 mL/min/kg; bioavailability [10]: 61%; fraction unbound [11]: > 0.5
> 2000,39.8,126,631,"O=C(O)C1CCC(N2CCN(C3=Cc4ccccc4Cn4ccnc43)CC2)CC1 (single isomer, unassigned; isomer 1)",–
501,> 794,31.6,200,C=C(CN1CCN(C2=Cc3ccccc3Cn3ccnc32)CC1)C(=O)O,–
–,25.1,63.1,501,O=C(O)C1CCC(N2CCN(C3=Cc4ccccc4Cn4ccnc43)CC2)CC1 (stereo in doubt; 16),pKi [1]: < 5.7
20,316,0.631,7.94,C1=C(N2CCNCC2)c2nccn2Cc2ccccc21,Ki [12]: 3.98 nM; Ki [13]: 3.16 nM
